The text below walks through data of US20240059680A1, “N-(2,3-DIHYDRO-1,4-BENZOXAZIN-4-YL)-3-ISOPROPYL-7-(2,3,5-TRIFLUOROPHENYL)BENZO-THIOPHENE-2-CARBOXAMIDE DERIVATIVES AND SIMILAR COMPOUNDS FOR THE TREATMENT OF HEARTWORM INFECTIONS” (ELANCO TIERGESUNDHEIT AG, priority 2020, published 2024).

Test [1] has as its system Adult Nippostrongylus brasiliensis. Description: In Vitro Assay 5: Nippostrongylus brasiliensis (NIPOBR), acetylcholine esterase readout. The format is cell-based. On the procedure: In Vitro Assay 5: Nippostrongylus Brasiliensis (NIPOBR)
Adult Nippostrongylus brasiliensis were washed with saline buffer containing 100 U/ml penicillin, 0.1 mg/ml streptomycin and 2.5 μg/ml amphotericin B. Test compounds were dissolved in DMSO and worms were incubated in medium in a final concentration of 10 μg/ml (10 ppm), 1 μg/ml (1 ppm) and 0.1 μg/ml (0.1 ppm) respectively. An aliquot of the medium was used to determine the acetylcholine esterase activity in comparison to a negative control. The principle of measuring acetylcholine esterase as readout for anthelmintic activity was described in Rapson et al (1986) and Rapson et al (1987).
Based on the evaluation of a wide concentration range, concentration-response curves as well as EC50-values were calculated.

In the next test the target is C. elegans Slo-1a (Caenorhabditis elegans, UniProt Q95V25).
The test system of test [2] is Dirofilaria immitis third-stage larvae. Description: In Vitro Assay 4: Dirofilaria immitis (DIROIM L4) larval motility. To be noted: 72 h. The class given is cell-based.
Test [3] relates to Dirofilaria immitis microfilariae. Kind of test: In Vitro Assay 3: Dirofilaria immitis microfilariae (DIROIM L1) motility. The class given is cell-based. The note with it: 72 h.
For the next test, the target named is D. immitis Slo-1 (Dirofilaria immitis, UniProt I0DFK5). Description: In Vitro Assay 2: D. immitis Slo-1, membrane potential measurement in recombinant CHO cell line. The format is cell-based.
The mark [4] stands for this setting: acetylcholine esterase activity in medium vs negative control, adult worms, read-out: EC50.

Converted amounts (≈) assume the structure as drawn. Read-outs that look alike come from different tables or passages of the source.

Chain of C. elegans Slo-1a (Q95V25 whole entry): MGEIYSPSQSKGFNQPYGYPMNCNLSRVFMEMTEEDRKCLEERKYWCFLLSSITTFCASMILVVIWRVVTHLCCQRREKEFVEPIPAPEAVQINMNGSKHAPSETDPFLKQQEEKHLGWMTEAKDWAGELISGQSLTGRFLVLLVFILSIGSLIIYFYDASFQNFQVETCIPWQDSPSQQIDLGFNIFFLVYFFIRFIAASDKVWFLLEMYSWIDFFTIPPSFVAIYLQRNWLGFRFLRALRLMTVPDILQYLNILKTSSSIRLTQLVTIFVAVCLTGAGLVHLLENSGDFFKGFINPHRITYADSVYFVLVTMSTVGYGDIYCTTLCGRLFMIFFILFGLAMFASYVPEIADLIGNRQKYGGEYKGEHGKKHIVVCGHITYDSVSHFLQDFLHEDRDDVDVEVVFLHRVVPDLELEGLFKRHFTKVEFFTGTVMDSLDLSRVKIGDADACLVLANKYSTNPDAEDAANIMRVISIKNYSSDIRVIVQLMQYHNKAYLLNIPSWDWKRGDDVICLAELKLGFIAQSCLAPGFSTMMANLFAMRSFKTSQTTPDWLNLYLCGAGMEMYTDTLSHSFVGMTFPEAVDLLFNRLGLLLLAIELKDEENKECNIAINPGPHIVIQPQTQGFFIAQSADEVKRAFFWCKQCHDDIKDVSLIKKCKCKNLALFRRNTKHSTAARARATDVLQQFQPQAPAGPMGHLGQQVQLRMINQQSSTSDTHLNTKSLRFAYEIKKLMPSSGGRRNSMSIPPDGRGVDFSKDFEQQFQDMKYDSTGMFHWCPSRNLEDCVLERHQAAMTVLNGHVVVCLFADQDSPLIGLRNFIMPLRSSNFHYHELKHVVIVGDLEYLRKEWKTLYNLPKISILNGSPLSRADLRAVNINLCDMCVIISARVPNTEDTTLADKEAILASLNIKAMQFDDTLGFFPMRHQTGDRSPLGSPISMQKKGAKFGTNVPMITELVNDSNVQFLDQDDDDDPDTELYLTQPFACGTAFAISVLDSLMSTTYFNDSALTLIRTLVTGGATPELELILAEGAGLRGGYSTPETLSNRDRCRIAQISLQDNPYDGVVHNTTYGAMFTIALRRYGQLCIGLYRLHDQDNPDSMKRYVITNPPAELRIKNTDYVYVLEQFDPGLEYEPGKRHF
Chain of D. immitis Slo-1 (I0DFK5 1-1119): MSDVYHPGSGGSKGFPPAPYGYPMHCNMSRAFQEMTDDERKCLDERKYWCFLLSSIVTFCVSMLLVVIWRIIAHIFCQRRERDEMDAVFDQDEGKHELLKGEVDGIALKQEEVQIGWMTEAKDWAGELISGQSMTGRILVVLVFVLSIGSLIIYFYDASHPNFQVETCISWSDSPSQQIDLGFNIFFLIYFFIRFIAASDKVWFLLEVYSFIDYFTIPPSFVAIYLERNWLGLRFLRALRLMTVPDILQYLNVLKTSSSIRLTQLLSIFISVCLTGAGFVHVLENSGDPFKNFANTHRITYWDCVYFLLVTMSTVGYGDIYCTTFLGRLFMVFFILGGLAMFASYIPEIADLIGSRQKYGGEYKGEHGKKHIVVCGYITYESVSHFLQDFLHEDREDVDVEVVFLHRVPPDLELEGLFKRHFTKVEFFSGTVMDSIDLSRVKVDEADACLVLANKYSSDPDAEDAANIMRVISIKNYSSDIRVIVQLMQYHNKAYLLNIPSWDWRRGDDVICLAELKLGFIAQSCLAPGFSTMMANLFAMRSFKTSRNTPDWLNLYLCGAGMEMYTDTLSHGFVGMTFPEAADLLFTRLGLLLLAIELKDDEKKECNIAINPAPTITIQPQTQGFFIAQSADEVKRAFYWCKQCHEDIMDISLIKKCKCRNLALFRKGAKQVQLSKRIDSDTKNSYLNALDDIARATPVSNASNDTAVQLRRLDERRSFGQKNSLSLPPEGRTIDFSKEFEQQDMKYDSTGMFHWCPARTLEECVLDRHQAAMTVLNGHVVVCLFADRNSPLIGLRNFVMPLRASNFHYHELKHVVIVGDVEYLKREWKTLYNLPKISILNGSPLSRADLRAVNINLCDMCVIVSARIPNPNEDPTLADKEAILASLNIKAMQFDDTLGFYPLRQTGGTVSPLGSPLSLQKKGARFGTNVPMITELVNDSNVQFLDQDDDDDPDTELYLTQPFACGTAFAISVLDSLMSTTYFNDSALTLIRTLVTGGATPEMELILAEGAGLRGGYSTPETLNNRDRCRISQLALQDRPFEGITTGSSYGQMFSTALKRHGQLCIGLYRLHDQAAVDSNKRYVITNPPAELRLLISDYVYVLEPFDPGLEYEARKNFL
Method for C. elegans Slo-1a: For transfection with plasmid DNA to express C. elegans Slo-1a (accession number AAL28102) CHO cells were passaged to 40% confluence before adding the transfection solution to the cell culture. The transfection solution included 300 μL OptiMEM (Life Technologies, Nr.: 31985), 2 μL (=6 μg) of plasmid DNA containing the C. elegans Slo-1a gene and 9 μL FugeneHD (Promega, Nr.: E2311), and was added to the cells prior to incubation for 48 hours at 37° C., 5% CO2. The transfection medium was exchanged for the selection medium which contains additional G418 (2 mg/ml, Invitrogen, Nr.: 10131) and the cells were seeded into 384 well plates (300 cells/well). After a few weeks, the remaining surviving cells were tested with a voltage sensitive dye (Membrane Potential Assay Kit, Molecular Devices Nr.: R8034) for K+ channel expression. Positive cell clones were purified by the limited dilution technique. For this the clone with the highest and most robust signal in the voltage sensitive dye assay was further subcloned (incubated) in 384 well plates (0.7 cells/well) to obtain clonal purity. This generated a final stable CHO cell line expressing the C. elegans Slo-1a.
Cell culture conditions Cells were cultured at 37° C. and 5% CO2 in MEMalpha with Gutamax I (Invitrogen, Nr.: 32571), supplemented with 10% (v/v) heat inactivated fetal bovine serum (Invitrogen, Nr.: 10500), G418 (1 mg/ml, Invitrogen, Nr.: 10131). Cells were detached using Accutase (Sigma, Nr.: A6964).
Membrane Potential Measurements
Laboratory compound testing was performed on 384-well microtiter plates (MTPs, Greiner, Nr.: 781092). 8000 cells/well were plated onto 384-well MTPs and cultured for 20 to 24 hours at 37° C. and 5% CO2. After removal of the cell culture medium, the cells were washed once with tyrode (150 mM NaCl, 0.3 mM KCl, 2 mM CaCl2, 1 m M MgCl2, 0.8 mM NaH2PO4, 5 mM Glucose, 28 mM Hepes, pH 7.4) and then loaded with the voltage sensitive dye of the Membrane Potential Assay Kit diluted in tyrode for 1 h at room temperature. After starting the measurement of fluorescence using a FLIPR Tetra (Molecular Devices, Exc. 510-545 nm, Emm. 565-625 nm), test compounds were added followed by the addition of KCl tyrode (final assay concentration: 70 mM KCl, 2 mM CaCl2, 1 mM MgCl2, 0.8 mM NaH2PO4, 5 mM Glucose, 28 mM Hepes, pH 7.4, including the voltage sensitive dye). The measurement was completed after 7 minutes.
EC50 values were calculated using a four-parameter plotting by the Scilligence ELN/Regmol Software Tool, Bioassay.

As for `CC(C)c1c(C(=O)NN2CCOc3ccccc32)sc2c(-c3cc(F)cc(F)c3F)ccnc12` [6,7], in test [1], the EC50 (as a rule, the midpoint of the concentration-response curve) was under 0.1 µg/mL.
`CC(C)c1c(C(=O)NN2CCOc3ccccc32)sc2c(-c3cc(F)cc(F)c3F)cccc12` [Example 1.1, N-(2,3-dihydro-1,4-benzoxazin-4-yl)-3-isopropyl-7-(2,3,5-trifluorophenyl)benzo-thiophene-2-carboxamide]: the EC50 on C. elegans Slo-1a is under 0.1 µM; in test [2] it was under 0.1 µg/mL; in test [3], under 0.1 µg/mL; in test [1] (setting [4]), 0.1 to 1 µg/mL (≈ 0.207 to 2.07 µM); at D. immitis Slo-1, over 1 µM.
For `O=C(NN1CCOc2ccccc21)c1sc2c(-c3cc(F)cc(F)c3F)nccc2c1N1CCOCC1` [Example 2.1, N-(2,3-Dihydro-1,4-benzoxazin-4-yl)-3-morpholino-7-(2,3,5-trifluorophenyl)thieno-[2,3-c]pyridine-2-carboxamide], the EC50 at C. elegans Slo-1a is 0.1 to 1 µM; in test [2], 0.1 to 1 µg/mL (≈ 0.19 to 1.9 µM); in test [3], 0.1 to 1 µg/mL (≈ 0.19 to 1.9 µM); in test [1] (setting [4]), over 1 µg/mL; at D. immitis Slo-1, 0.1 to 1 µM.
On to `CC(C)c1c(C(=O)NN2CCOc3ccccc32)sc2c(-c3cc(F)cc(F)c3F)nccc12` [Example 2.2, N-(2,3-Dihydro-1,4-benzoxazin-4-yl)-3-isopropyl-7-(2,3,5-trifluorophenyl)-thieno[2,3-c]pyridine-2-carboxamide], for which the EC50 is under 0.1 µM at C. elegans Slo-1a; under 0.1 µg/mL in test [2]; under 0.1 µg/mL in test [3]; 0.1 to 1 µg/mL (≈ 0.207 to 2.07 µM) in test [1] (setting [4]); 0.1 to 1 µM on D. immitis Slo-1.
As to `Cc1nn2c(C(C)C)c(C(=O)NN3CCOc4ccccc43)cnc2c1-c1c(F)cccc1F` [Example 3.1, 3-(2,6-Difluorophenyl)-N-(2,3-dihydro-1,4-benzoxazin-4-yl)-7-isopropyl-2-methyl-pyrazolo[1,5-a]pyrimidine-6-carboxamide], the EC50 is under 0.1 µM on C. elegans Slo-1a; under 0.1 µg/mL in test [2]; under 0.1 µg/mL in test [3]; over 1 µg/mL in test [1] (setting [4]); 0.1 to 1 µM at D. immitis Slo-1.
Turning to `Cc1nn2c(C(C)C)c(C(=O)NN3CCOc4ccccc43)sc2c1-c1cc(F)cc(F)c1F` [Example 4.1, N-(2,3-Dihydro-1,4-benzoxazin-4-yl)-3-isopropyl-6-methyl-7-(2,3,5-trifluorophenyl)-pyrazolo[5,1-b]thiazole-2-carboxamide], the half-maximal effective concentration (EC50) was under 0.1 µM on C. elegans Slo-1a; under 0.1 µg/mL in test [2]; 0.1 to 1 µg/mL (≈ 0.206 to 2.06 µM) in test [3]; over 1 µg/mL in test [1] (setting [4]); over 1 µM at D. immitis Slo-1.
The matching figures for `Cc1nn2c(N3CCOCC3)c(C(=O)NN3CCOc4ccccc43)sc2c1-c1cc(F)cc(F)c1F` [Example 4.2, N-(2,3-Dihydro-4H-benzo[b][1,4]oxazin-4-yl)-6-methyl-3-morpholino-7-(2,3,5-trifluorophenyl)pyrazolo[5,1-b]thiazole-2-carboxamide]: under 0.1 µM, under 0.1 µg/mL, under 0.1 µg/mL, 0.1 to 1 µg/mL (≈ 0.189 to 1.89 µM) and over 1 µM.
The matching figures for `Cc1nn2c(C(C)(C)O)c(C(=O)NN3CCOc4ccccc43)sc2c1-c1cc(F)cc(F)c1F` [Example 4.3, N-(2,3-Dihydro-1,4-benzoxazin-4-yl)-3-(2-hydroxypropan-2-yl)-6-methyl-7-(2,3,5-trifluorophenyl)pyrazolo [3,2-b][1,3]thiazole-2-carboxamide]: under 0.1 µM, under 0.1 µg/mL, under 0.1 µg/mL, 0.1 to 1 µg/mL (≈ 0.199 to 1.99 µM) and 0.1 to 1 µM.
The matching figures for `Cc1nn2c(C(C)C)c(C(=O)NN3CCOc4ccccc43)nnc2c1-c1c(F)cccc1F` [Example 5.1, 8-(2,6-Difluorophenyl)-N-(2,3-dihydro-1,4-benzoxazin-4-yl)-4-isopropyl-7-methyl-pyrazolo[5,1-c][1,2,4]triazine-3-carboxamide]: 0.1 to 1 µM, 0.1 to 1 µg/mL (≈ 0.215 to 2.15 µM), under 0.1 µg/mL, over 1 µg/mL and over 1 µM.
As for `CC(C)(O)c1c(C(=O)NN2CCOc3ccccc32)sc2c(-c3cc(F)cc(F)c3F)c(F)cnc12` [Example 6.1, N-(2,3-Dihydro-4H-benzo[b][1,4]oxazin-4-yl)-6-fluoro-3-(2-hydroxypropan-2-yl)-7-(2,3,5-trifluorophenyl)thieno[3,2-b]pyridine-2-carboxamide], the EC50 on C. elegans Slo-1a was under 0.1 µM; in test [2], under 0.1 µg/mL; in test [3] it was under 0.1 µg/mL; in test [1], under 0.1 µg/mL; on D. immitis Slo-1 it was under 0.1 µM.
Take `O=C(NN1CCOc2ccccc21)c1sc2c(-c3cc(F)cc(F)c3F)c(F)cnc2c1N1CC(F)C1` [Example 6.2, N-(2,3-dihydro-4H-benzo[b][1,4]oxazin-4-VI)-6-fluoro-3-(3-fluoroazetidin-1-yl)-7-(2,3,5-trifluorophenyl)thieno[3,2-b]pyridine-2-carboxamide]: the EC50 on C. elegans Slo-1a is 0.1 to 1 µM; in test [2] it was 0.1 to 1 µg/mL (≈ 0.188 to 1.88 µM); in test [3], under 0.1 µg/mL; in test [1] (setting [4]), over 1 µg/mL; at D. immitis Slo-1 it was over 1 µM.
`CC(C)c1c(C(=O)NN2CCOc3ccccc32)sc2c(-c3cc(F)cc(F)c3F)c(F)cnc12` [Example 6.3, N-(2,3-Dihydro-4H-benzo[b][1,4]oxazin-4-yl)-6-fluoro-3-isopropyl-7-(2,3,5-trifluoro-phenyl)thieno[3,2-b]pyridine-2-carboxamide]: the EC50 at C. elegans Slo-1a was under 0.1 µM; in test [2], under 0.1 µg/mL; in test [3] it was under 0.1 µg/mL; in test [1], under 0.1 µg/mL; on D. immitis Slo-1, under 0.1 µM.
For the compound `CC(C)c1c(C(=O)NN2CCOc3ccccc32)sc2c(-c3cc(F)cc(F)c3F)ccnc12` [Example 6.7, N-(2,3-Dihydro-4H-benzo[b][1,4]oxazin-4-yl)-3-isopropyl-7-(2,3,5-trifluorophenyl)-thieno [3,2-b]pyridine-2-carboxamide], the EC50 at C. elegans Slo-1a is under 0.1 µM; in test [2], under 0.1 µg/mL; in test [3], under 0.1 µg/mL; at D. immitis Slo-1 it was under 0.1 µM.
Regarding `CC(C)c1c(C(=O)NN2CCOc3ccccc32)n(C)c2c(-c3cc(F)cc(F)c3F)cccc12` [Example 17.2, N-(2,3-Dihydro-4H-benzo[b][1,4]oxazin-4-yl)-3-isopropyl-1-methyl-7-(2,3,5-trifluoro-phenyl)-1H-indole-2-carboxamide], the EC50 on C. elegans Slo-1a was over 1 µM; in test [2], over 1 µg/mL; in test [1] (setting [4]), over 1 µg/mL; at D. immitis Slo-1 it was over 1 µM.
Turning to `CN(C)c1c(C(=O)NN2CCOc3ccccc32)cnc2c1ccn2-c1cc(F)cc(F)c1F` [Example 18.1, N-(2,3-Dihydro-4H-benzo[b][1,4]oxazin-4-yl)-4-(dimethylamino)-1-(2,3,5-trifluorophenyl)-1H-pyrrolo[2,3-b]pyridine-5-carboxamide], the EC50 was 0.1 to 1 µM on C. elegans Slo-1a, under 0.1 µg/mL in test [2], over 1 µg/mL in test [1] (setting [4]) and over 1 µM at D. immitis Slo-1.
As to `CC(C)c1c(C(=O)NN2CCOc3ccccc32)oc2c(-c3cc(F)cc(F)c3F)cccc12` [Example 19.1, N-(2,3-Dihydro-1,4-benzoxazin-4-yl)-3-(1-methylethyl)-7-[2,3,5-tris(fluoranyl)-phenyl]benzofuran-2-carboxamide], the values for the EC50 in test [2] and in test [1] (setting [4]) were under 0.1 µg/mL and 0.1 to 1 µg/mL (≈ 0.214 to 2.14 µM), respectively.
